Laboratory results reported in PubChem BioAssay (NCI).
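Step 1: Grow cells in 96-well plates. Step 2: Expose to compound for 48 hours at 5 concentrations. Step 3: Interpolate endpoints linearly; if unreached, use highest concentration. TGI is the concentration that stops growth completely.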

What was measured:
Experiment in all cases: NCI-60 cell line screen, 48 h
UACC-257 melanoma = test system: UACC-257 melanoma
KM12 colon = test system: KM12 colon
COLO 205 colon = test system: COLO 205 colon
HOP-92 NSCLC = test system: HOP-92 NSCLC
OVCAR-5 ovarian = test system: OVCAR-5 ovarian
MCF7 breast = test system: MCF7 breast
UACC-62 melanoma = test system: UACC-62 melanoma
NCI/ADR-RES ovarian = test system: NCI/ADR-RES ovarian
K-562 leukemia = test system: K-562 leukemia
OVCAR-4 ovarian = test system: OVCAR-4 ovarian

In the case of `COc1ccc(C2OCCN2C)cc1` (stereo not given), the TGI (UACC-257 melanoma) is reported as > 100 µM, the TGI (KM12 colon) is reported as > 100 µM and the TGI (COLO 205 colon) is reported as > 100 µM. The TGI (HOP-92 NSCLC) was > 100 µM, the TGI (OVCAR-5 ovarian) was > 100 µM and the TGI (MCF7 breast) was > 100 µM. The TGI (UACC-62 melanoma) was > 100 µM, the TGI (NCI/ADR-RES ovarian) was > 100 µM and the TGI (K-562 leukemia) was > 100 µM. The TGI (OVCAR-4 ovarian) was > 100 µM.
`COc1ccc2c(c1)OCCc1cn[nH]c1-2` was tested, and the TGI (UACC-257 melanoma) was > 100 µM, the TGI (KM12 colon) was > 100 µM and the TGI (COLO 205 colon) was > 100 µM. For the same molecule, the TGI (HOP-92 NSCLC) was 61.6 µM, the TGI (OVCAR-5 ovarian) was > 100 µM and the TGI (MCF7 breast) was > 100 µM. The TGI (UACC-62 melanoma) was 84.3 µM, the TGI (NCI/ADR-RES ovarian) was > 100 µM and the TGI (K-562 leukemia) was > 100 µM. The TGI (OVCAR-4 ovarian) was > 100 µM.
With `CN(C(=O)c1ccc2c(c1)sc1c(=O)n(C)c3ccccc3c12)c1ccccc1` the TGI (UACC-257 melanoma) was > 100 µM, the TGI (KM12 colon) was > 100 µM and the TGI (COLO 205 colon) was > 100 µM. The TGI (HOP-92 NSCLC) was > 100 µM, the TGI (OVCAR-5 ovarian) was > 100 µM and the TGI (MCF7 breast) was > 100 µM. The TGI (UACC-62 melanoma) was > 100 µM, the TGI (NCI/ADR-RES ovarian) was > 100 µM and the TGI (K-562 leukemia) was > 100 µM. The TGI (OVCAR-4 ovarian) was > 100 µM.
In the case of `CCOC(=O)C(NC(=O)CC)(Nc1ccc(S(=O)(=O)Nc2onc(C)c2C)cc1)C(F)(F)F` (stereo not given), the TGI (UACC-257 melanoma) is reported as > 100 µM, the TGI (KM12 colon) is reported as > 100 µM and the TGI (COLO 205 colon) is reported as > 100 µM. The TGI (HOP-92 NSCLC) was > 100 µM, the TGI (OVCAR-5 ovarian) was > 100 µM and the TGI (MCF7 breast) was > 100 µM. For the same molecule, the TGI (UACC-62 melanoma) was > 100 µM, the TGI (NCI/ADR-RES ovarian) was > 100 µM and the TGI (K-562 leukemia) was > 100 µM. The TGI (OVCAR-4 ovarian) was > 100 µM.
